Patent US12564553B2, “Suspension containing heterocyclidene acetamide derivative” (SENJU PHARMACEUTICAL CO., LTD., priority 2021, dated 2026)

Experiment: Stability of Compound (1) in nonionic surfactant solution (content retention rate, liquid chromatography)
Type: physicochemical
Settings: aqueous solution in glass ampoule stored at 25° C. for 1 month (1M)
Experimental: As used herein, the term “stability” refers to the degree to which the content of (E)-2-(7-trifluoromethylchroman-4-ylidene)-N-(7-hydroxy-5,6,7,8-tetrahydronaphthalen-1-yl)acetamide, or a pharmaceutically acceptable salt or solvate thereof, dissolved and/or suspended in an aqueous suspension is maintained without being altered by decomposition or the like after storage for a certain period of time. In addition, as used herein, the “stability” is evaluated by the content maintenance ratio, which is the ratio of the content of (E)-2-(7-trifluoromethylchroman-4-ylidene)-N-(7-hydroxy-5,6,7,8-tetrahydronaphthalen-1-yl)acetamide, or a pharmaceutically acceptable salt or solvate thereof, in the aqueous suspension agent stored for a certain period after preparation to the content of (E)-2-(7-trifluoromethylchroman-4-ylidene)-N-(7-hydroxy-5,6,7,8-tetrahydronaphthalen-1-yl)acetamide, or a pharmaceutically acceptable salt or solvate thereof, in the aqueous suspension agent immediately after preparation. Typically, this evaluation is determined by evaluating the content retention rate of (E)-2-(7-trifluoromethylchroman-4-ylidene)-N-(7-hydroxy-5,6,7,8-tetrahydronaphthalen-1-yl)acetamide, or a pharmaceutically acceptable salt or solvate thereof, dissolved in the aqueous suspension agent. […]

content retention rate (to display ratio %): 100%
SMILES: O=C(/C=C1\CCOc2cc(C(F)(F)F)ccc21)Nc1cccc2c1C[C@H](O)CC2 [Compound (1), (E)-2-(7-trifluoromethylchroman-4-ylidene)-N-((7R)-7-hydroxy-5,6,7,8-tetrahydronaphthalen-1-yl)acetamide]
